The values that follow come from patent US9714244B2, “Substituted pyrido[4,3-d]pyrimidines as Wee-1 inhibitors” (ALMAC DISCOVERY LIMITED, priority 2013, dated 2017).

The target of series [1] is Wee-1 kinase (Homo sapiens (Human), UniProt P30291). In words: Measurement of Wee-1 kinase activity (ADP-Glo). Particulars: read-out: Wee-1 IC50 activity. Type of series: biochemical. On the procedure:
Method 1: Measurement of Wee-1 kinase activity
In the measurement of Wee-1 activity, a commercial peptide Poly(Lys Tyr(4:1)) hydrobromide was purchased from Sigma Aldrich and used as the substrate. Activated Wee-1 kinase was purchased from Invitrogen (PV3817) and an ADP-Glo luminescent kit was purchased from Promega.
All reactions took place in […] volumes in reaction buffer containing 40 mM Tris-HCl and 20 mM magnesium chloride, supplemented with 0.1 mg/mL bovine serum albumin and 2 mM DTT. Compounds were serially diluted in buffer and 5 μL of each concentration pipetted into a white 384 well plate (Sigma Aldrich M6186). A 5 μL aliquot of the Wee-1 enzyme was added to each well and the plate centrifuged for 1 min to ensure mixing of the enzyme and inhibitor.
The plate was incubated at room temperature for 30 minutes before the addition of 2.0 μg/mL of substrate and 30 μM ATP in a 5 μL aliquot. The plate was centrifuged for one minute and incubated for 1 h at RT.
15 μL of ADP-Glo stop reagent was added to each well to quench the reaction and deplete unconverted ATP. The plate was incubated for a further 40 min in the dark at RT.
30 μL of ADP-Glo kinase detection reagent was added to each well, converting ADP to ATP, catalysing the generation of luciferin by luciferase. The plate was shaken for 1 min, and incubated in the dark for an additional hour.
Luminescence from each well was detected using the Biotek Synergy4 HD plate reader and the percentage inhibition of kinase activity calculated for each inhibitor tested. Positive (kinase only) and negative (no kinase) controls were added to each plate to ensure specific interaction of kinase and inhibitor. The IC50 concentration for each inhibitor was calculated by plotting the percentage kinase inhibition against concentration of inhibitor and the curve generated by non-linear regression fitting.
A general note: ADP-Glo turns the ADP formed in a reaction into a luminescent signal.

Series [2] deals with phospho-cdc2 (Tyr15) in HT-29 cells. In words: Effect on phosphorylation of cdc2 at Tyr15 in HT-29 cells (PathScan ELISA). As to conditions: Homo sapiens, HT-29, 8 h; HT29 cells, eight hours incubation; read-out: HT29 pCDC2 activity. Type of series: cell-based. On the procedure:
Method 2: Determining the effect of compounds on the phosphorylation of cdc2 at Tyr15
The colorectal cancer cell lines HT-29 and HCT-116 were purchased from the ATCC and routinely maintained in McCoy's Medium (Invitrogen) supplemented with 10% Foetal Calf Serum.
The cells were trypsinised from their growing vessel and counted, 100 μL of cell suspension containing 6000 cells was pipetted into black 96 well Co-star plates and incubated overnight to allow adherence to the surface at a temperature of 37° C. and an atmosphere of 5% CO2. Test compounds were formulated in DMSO and diluted in foetal calf serum supplemented medium. Incubating medium was removed by aspiration and diluted drug supplemented medium added to each well.
The plate was returned to the incubator for an additional eight hours at 37° C. and an atmosphere of 5% CO2. Post incubation, the drug supplemented medium was aspirated from each well and the cells were washed once in ice-cold phosphate buffered saline (PBS). 100 μL of cell lysis buffer (Cell Signalling Technologies #9803) containing 20 mM Tris, 150 mM NaCl, 1 mM EDTA, 1 mM EGTA, 1% Triton-X100, 2.5 mM sodium pyrophosphate, 1 mM glycerophosphate, 1 mM Na3VO4 and 1 μg/mL leupeptin was added to each well of the 96 well plate and incubated at 4° C. for 30 min. The samples on the plate were snap frozen at −80° C. until required.
Immediately before the continuation of the assay, the sample plate was thawed and centrifuged at 4° C. for 10 min and the supernatant transferred to secondary tubes or 96 well plate.
Cell supernatant was mixed in a ratio of 1:1 with sample dilutent buffer and vortexed for one minute. 100 μL of diluted sample was pipetted into pre-coated plates containing a rabbit polyclonal antibody for phospho-cdc2 (Tyr15) (Cell Signalling Technologies PathScan kit #7176). The plate was sealed and incubated overnight at 4° C.
The plate seal was removed and the well contents aspirated, followed by 3×5 min washes with 200 μL of diluted wash buffer. Between each wash the plate was tapped firmly onto blotting paper to ensure the removal of all kit solution. 100 μL of kit detection antibody was added to each well and the plate re-sealed and incubated at 37° C. for 1 h. Post incubation the plate was washed and processed in a similar manner to that previously described.
100 μL of horseradish peroxidise-linked secondary antibody was added to each test well, the plate sealed and incubated for thirty minutes at 37° C. Post incubation, the plate was washed as previously stated, followed by the addition of 100 μL of 3,3′,5,5′ tetramethylbenzidine (TMB reagent). The plate was sealed and incubated at RT for 30 min.
100 μL of stop solution was added to each well and the underside of the plate wiped with a lint-free tissue, prior to spectrophotometric determination. Absorbance from each well was read at 450 nm within 30 min of the addition of the stop solution.
The percentage of phospho-cdc2 was calculated compared to DMSO control and plotted versus the concentration of inhibitor using GraphPad Prism. Data was fitted using non-linear regression analysis and IC50 values generated.
For orientation: An ELISA detects its analyte on a solid surface through an enzyme-linked reagent.

The nature of series [3]: CLint estimates using human liver microsomes. Type of series: in vitro ADME. Particulars: pH 7.4, read-out: HLM activity (HLM CLint). On the procedure:
Method for the Determination of CLint Estimates Using Human Liver Microsomes
Test compounds (final concentration=1 μM; final DMSO concentration=0.1%) were incubated in 0.1M phosphate buffer pH 7.4 with human liver microsomes (0.5 mg of protein/mL) at 37° C. Reactions were started by addition of NADPH in 0.1M phosphate buffer pH 7.4 (final concentration 1 mM). 40 μL aliquots were removed at 2, 5, 10, 15, 20, 30, 40 and 50 min. Reactions were quenched in 80 μL of ice-cold methanol. Samples were subsequently frozen overnight then centrifuged at 3500 rpm for 20 min at 4° C. The supernatants were removed and transferred into analytical plates and analysed by LC/MS/MS.
All samples were analysed on a Waters Acquity I-Class coupled to a Waters Xevo TQD mass spectrometer. A Waters BEH C18 2.1×50 mm 1.7 μm column was used and mobile phases were water and methanol containing 0.1% formic acid as modifier. Analysis was by multiple reaction monitoring and conditions were optimised for each test compound.
From a plot of ln peak area against time, the gradient of the line is determined. Subsequently, half-life and intrinsic clearance are calculated using the following equations.

Series [4] concerns the target human ether a go-go related gene (hERG) K+ channel (Homo sapiens (Human), UniProt Q12809). In words: hERG inhibition, IonWorks patch clamp electrophysiology. The class given is cell-based. Particulars: 8-point curve from 11 μM. On the procedure:
Compounds were tested for inhibition of the human ether a go-go related gene (hERG) K^+ channel using IonWorks patch clamp electrophysiology at Essen BioScience.
Background: hERG is a cardiac potassium channel; its block is linked to QT prolongation.

Series [5] is described as follows: Human hepatocyte assay CLint. Type of series: in vitro ADME. Particulars: hepatocytes. On the procedure:
(§1) Compounds of the present invention have good stability in human and/or rat hepatocyte incubations. In particular, representative examples 7, 8, 13, 18, 20 have CLint of <20 μL/min/10^6 cells in a human hepatocyte assay and/or <40 μL/min/10^6 cells in a rat hepatocyte assay.

The nature of series [6]: Rat hepatocyte assay CLint. The class given is in vitro ADME. Particulars: hepatocytes. On the procedure:
as §1

Series [7] can be described thus: Oral bioavailability in rat. Particulars: in vivo. An excerpt:
Compounds of the present invention are orally bioavailable.

In series [8] the target is CYP3A4 (Homo sapiens (Human), UniProt P08684). The experiment in a line: Time dependent CYP inhibition: CYP3A4. The class given is in vitro ADME. As to conditions: 30 min pre incubation ±NADPH relative to direct inhibition IC50 with no pre-incubation. An excerpt:
(§2) Compounds of the present invention have no time dependent CYP inhibition.

In series [9] the target is CYP2C9 (Homo sapiens (Human), UniProt P11712). The experiment in a line: Time dependent CYP inhibition: CYP2C9. As to conditions: 30 min pre incubation ±NADPH relative to direct inhibition IC50 with no pre-incubation. Type of series: in vitro ADME.
Sequence of CYP2C9 (P11712 whole entry): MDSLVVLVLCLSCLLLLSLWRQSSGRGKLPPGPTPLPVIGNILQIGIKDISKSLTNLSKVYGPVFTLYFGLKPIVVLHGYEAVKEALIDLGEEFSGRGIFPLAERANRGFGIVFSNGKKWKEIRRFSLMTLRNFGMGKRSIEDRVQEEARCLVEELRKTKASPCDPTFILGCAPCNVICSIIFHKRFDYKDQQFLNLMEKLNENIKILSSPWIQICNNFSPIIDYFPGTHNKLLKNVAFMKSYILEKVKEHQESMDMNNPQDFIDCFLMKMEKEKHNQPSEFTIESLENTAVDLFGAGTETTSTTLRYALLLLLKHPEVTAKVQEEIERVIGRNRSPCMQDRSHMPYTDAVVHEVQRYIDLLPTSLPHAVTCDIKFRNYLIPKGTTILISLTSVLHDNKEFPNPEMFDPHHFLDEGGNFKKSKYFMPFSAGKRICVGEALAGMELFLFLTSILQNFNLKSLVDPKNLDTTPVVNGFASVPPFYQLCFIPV
From the text: as §2

Series [10] concerns the target CYP2C19 (Homo sapiens (Human), UniProt P33261). The experiment in a line: Time dependent CYP inhibition: CYP2C19. The class given is in vitro ADME. Particulars: 30 min pre incubation ±NADPH relative to direct inhibition IC50 with no pre-incubation.
From the text: as §2

The target in series [11] is CYP2D6 (Homo sapiens (Human), UniProt P10635). The experiment in a line: Time dependent CYP inhibition: CYP2D6. The class given is in vitro ADME. Particulars: 30 min pre incubation ±NADPH relative to direct inhibition IC50 with no pre-incubation.
Sequence of CYP2D6 (P10635 whole entry): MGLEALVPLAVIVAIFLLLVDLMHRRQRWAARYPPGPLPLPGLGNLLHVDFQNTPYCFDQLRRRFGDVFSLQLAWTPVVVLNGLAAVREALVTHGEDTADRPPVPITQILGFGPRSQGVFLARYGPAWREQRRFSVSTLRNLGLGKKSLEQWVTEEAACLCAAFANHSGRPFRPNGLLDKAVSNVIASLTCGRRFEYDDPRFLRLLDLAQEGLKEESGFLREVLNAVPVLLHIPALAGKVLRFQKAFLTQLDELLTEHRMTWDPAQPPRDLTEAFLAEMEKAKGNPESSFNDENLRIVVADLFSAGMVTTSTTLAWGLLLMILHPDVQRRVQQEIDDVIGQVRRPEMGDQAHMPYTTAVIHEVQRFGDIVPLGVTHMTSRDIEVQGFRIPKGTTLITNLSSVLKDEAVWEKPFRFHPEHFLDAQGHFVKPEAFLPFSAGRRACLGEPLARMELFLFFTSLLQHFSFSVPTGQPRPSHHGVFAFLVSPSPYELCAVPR
From the text: as §2

In general, hepatocyte CLint refers to the rate of metabolic loss divided by the concentration. Lower therefore signals slow turnover. In general, bioavailability refers to dose-corrected exposure relative to a reference, in per cent. A higher bioavailability goes with much systemic uptake.

Where a name gives a salt, the structure may show the parent alone. Some results are limits rather than exact numbers.

Sequence of human ether a go-go related gene (hERG) K+ channel (Q12809 whole entry): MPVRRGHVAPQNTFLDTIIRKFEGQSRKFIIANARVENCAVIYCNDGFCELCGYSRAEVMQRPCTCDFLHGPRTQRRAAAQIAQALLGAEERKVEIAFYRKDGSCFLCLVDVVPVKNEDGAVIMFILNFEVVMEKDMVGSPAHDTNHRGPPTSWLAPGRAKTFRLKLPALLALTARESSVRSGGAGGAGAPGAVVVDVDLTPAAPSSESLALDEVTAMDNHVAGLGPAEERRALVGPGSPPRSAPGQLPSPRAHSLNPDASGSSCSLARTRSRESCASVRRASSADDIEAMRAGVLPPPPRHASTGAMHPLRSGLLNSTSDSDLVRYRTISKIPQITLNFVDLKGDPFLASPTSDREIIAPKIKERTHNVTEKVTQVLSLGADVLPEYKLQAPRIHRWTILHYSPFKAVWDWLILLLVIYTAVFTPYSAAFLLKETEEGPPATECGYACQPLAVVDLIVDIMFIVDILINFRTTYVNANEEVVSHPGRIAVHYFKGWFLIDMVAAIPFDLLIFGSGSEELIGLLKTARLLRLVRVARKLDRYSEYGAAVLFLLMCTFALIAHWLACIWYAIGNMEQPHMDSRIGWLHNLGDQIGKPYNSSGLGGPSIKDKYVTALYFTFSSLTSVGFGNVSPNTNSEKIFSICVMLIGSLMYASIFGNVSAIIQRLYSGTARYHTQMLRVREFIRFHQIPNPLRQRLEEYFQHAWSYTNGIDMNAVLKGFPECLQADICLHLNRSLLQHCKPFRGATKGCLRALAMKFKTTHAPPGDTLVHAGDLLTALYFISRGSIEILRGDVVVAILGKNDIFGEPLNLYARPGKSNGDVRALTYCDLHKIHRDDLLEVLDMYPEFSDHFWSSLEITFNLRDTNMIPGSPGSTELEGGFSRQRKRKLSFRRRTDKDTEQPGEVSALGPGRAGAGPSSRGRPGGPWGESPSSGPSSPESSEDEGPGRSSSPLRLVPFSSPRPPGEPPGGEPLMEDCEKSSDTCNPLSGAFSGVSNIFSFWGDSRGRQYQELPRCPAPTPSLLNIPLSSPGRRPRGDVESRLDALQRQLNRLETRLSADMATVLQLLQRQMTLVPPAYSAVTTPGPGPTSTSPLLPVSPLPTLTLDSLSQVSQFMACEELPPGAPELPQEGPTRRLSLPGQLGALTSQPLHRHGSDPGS
Sequence of Wee-1 kinase (P30291 whole entry): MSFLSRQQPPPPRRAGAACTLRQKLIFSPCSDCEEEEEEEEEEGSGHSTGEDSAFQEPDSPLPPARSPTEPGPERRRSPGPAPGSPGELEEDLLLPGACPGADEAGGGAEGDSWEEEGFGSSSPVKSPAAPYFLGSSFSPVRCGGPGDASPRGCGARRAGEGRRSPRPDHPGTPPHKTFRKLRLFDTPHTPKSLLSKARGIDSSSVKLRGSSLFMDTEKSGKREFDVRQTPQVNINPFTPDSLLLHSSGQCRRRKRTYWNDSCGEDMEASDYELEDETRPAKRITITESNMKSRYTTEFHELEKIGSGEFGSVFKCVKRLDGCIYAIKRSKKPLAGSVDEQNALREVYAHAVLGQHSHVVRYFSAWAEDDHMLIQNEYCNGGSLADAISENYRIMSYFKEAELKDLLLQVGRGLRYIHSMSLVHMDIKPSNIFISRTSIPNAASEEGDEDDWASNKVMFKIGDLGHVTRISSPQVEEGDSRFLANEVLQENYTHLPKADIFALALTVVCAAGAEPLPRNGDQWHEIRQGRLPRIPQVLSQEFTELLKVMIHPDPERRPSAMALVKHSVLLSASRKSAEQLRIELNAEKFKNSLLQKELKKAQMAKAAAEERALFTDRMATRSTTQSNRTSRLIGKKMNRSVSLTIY
Sequence of CYP2C19 (P33261 whole entry): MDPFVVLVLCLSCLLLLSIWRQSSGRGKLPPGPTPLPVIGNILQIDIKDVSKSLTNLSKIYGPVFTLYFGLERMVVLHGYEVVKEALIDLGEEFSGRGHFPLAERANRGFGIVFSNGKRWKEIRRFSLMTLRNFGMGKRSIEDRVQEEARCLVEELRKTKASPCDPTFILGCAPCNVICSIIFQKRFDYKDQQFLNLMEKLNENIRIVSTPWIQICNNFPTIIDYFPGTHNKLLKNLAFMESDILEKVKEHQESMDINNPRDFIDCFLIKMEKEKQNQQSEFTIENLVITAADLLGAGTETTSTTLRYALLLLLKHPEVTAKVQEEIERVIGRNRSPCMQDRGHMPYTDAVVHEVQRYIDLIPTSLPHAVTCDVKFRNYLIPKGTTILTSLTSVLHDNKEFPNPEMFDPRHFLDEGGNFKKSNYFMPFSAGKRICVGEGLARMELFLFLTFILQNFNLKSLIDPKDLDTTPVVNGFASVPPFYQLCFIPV
Sequence of CYP3A4 (P08684 whole entry): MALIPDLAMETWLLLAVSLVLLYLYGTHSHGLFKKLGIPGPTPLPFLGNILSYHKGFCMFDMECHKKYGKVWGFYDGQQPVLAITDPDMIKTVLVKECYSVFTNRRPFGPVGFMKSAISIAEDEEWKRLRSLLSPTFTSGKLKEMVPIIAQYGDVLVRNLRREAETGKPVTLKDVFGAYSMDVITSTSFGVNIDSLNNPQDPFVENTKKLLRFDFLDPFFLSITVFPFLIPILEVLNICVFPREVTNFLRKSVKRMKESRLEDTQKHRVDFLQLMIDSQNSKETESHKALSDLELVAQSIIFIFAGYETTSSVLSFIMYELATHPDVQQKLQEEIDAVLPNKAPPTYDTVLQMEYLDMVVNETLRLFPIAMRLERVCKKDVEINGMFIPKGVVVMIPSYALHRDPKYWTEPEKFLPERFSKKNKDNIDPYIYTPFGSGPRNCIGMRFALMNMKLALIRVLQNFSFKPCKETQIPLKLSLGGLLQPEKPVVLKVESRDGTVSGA

As to `O=c1c2cnc(Nc3ccc(N4CCNCC4)c(CO)c3)nc2ccn1-c1c(Cl)cccc1Cl` [Example 18, 6-(2,6-Dichlorophenyl)-2-((3-(hydroxymethyl)-4-(piperazin-1-yl)phenyl)amino)pyrido[4,3-d]pyrimidin-5(6H)-one], the IC50 in series [1] was < 10 nM; in series [2], ≤ 100 nM; in series [4], ≥ 10000 nM. Also, the microsomal CLint at 1 μM in series [3] is ≤ 20 µL/min/mg. The hepatocyte CLint in series [5] is < 20 µL/min/1e6 cells; in series [6] it was < 40 µL/min/1e6 cells.
With `CNCc1cc(Nc2ncc3c(=O)n(-c4c(Cl)cccc4Cl)ccc3n2)ccc1N1CCOCC1` [Example 20, 6-(2,6-Dichlorophenyl)-2-((3-((methylamino)methyl)-4-morpholinophenyl)amino)pyrido[4,3-d]pyrimidin-5(6H)-one], the IC50 in [1] is < 10 nM; in [2], ≤ 100 nM; in [4] it was ≥ 10000 nM. The microsomal CLint at 1 μM in series [3] is ≤ 20 µL/min/mg. In addition, the results for the hepatocyte CLint in series [5] and in series [6] were < 20 µL/min/1e6 cells and < 40 µL/min/1e6 cells, respectively. For the same molecule, the bioavailability in series [7] was > 25%. For the same molecule, the “time dependent inhibition of CYP3A4: shift in IC50” value in series [8] is listed as < 2 fold. The “time dependent inhibition of CYP2C9: shift in IC50” value in [9] was < 2 fold. Further, the “time dependent inhibition of CYP2C19: shift in IC50” value in series [10] is reported as < 2 fold. In series [11], the “time dependent inhibition of CYP2D6: shift in IC50” value is < 2 fold.
As to `CN1CCN(c2ccc(Nc3ncc4c(=O)n(-c5c(Cl)cccc5Cl)ccc4n3)cc2CO)CC1` [Example 8, 6-(2,6-Dichlorophenyl)-2-((3-(hydroxymethyl)-4-(4-methylpiperazin-1-yl)phenyl)amino)pyrido[4,3-d]pyrimidin-5(6H)-one], the IC50 is < 10 nM in series [1] and 100 to 1000 nM in series [2]. The microsomal CLint at 1 μM in series [3] is ≤ 20 µL/min/mg. The hepatocyte CLint is < 20 µL/min/1e6 cells in [5] and < 40 µL/min/1e6 cells in series [6].
Take `Cc1cc(Nc2ncc3c(=O)n(-c4c(Cl)cccc4Cl)ccc3n2)ccc1N1CCNCC1` [Example 7, 6-(2,6-Dichlorophenyl)-2-((3-methyl-4-(piperazin-1-yl)phenyl)amino)pyrido[4,3-d]pyrimidin-5(6H)-one]: the IC50 was < 10 nM in [1], ≤ 100 nM in series [2] and 1000 to 10000 nM in series [4]. For the same molecule, the microsomal CLint at 1 μM in series [3] was ≤ 20 µL/min/mg. The hepatocyte CLint in series [5] is < 20 µL/min/1e6 cells; in [6] it was < 40 µL/min/1e6 cells. Further, in series [7], the bioavailability was > 25%.
With `COc1cc(Nc2ncc3c(=O)n(-c4c(Cl)cccc4Cl)ccc3n2)ccc1N1CCNCC1` [Example 13, 6-(2,6-Dichlorophenyl)-2-((3-methoxy-4-(piperazin-1-yl)phenyl)amino)pyrido[4,3-d]pyrimidin-5(6H)-one, HCl], the IC50 in series [1] is < 10 nM; in series [2] it was ≤ 100 nM; in [4] it was ≥ 10000 nM. Moreover, the microsomal CLint at 1 μM in series [3] was ≤ 20 µL/min/mg. Moreover, the hepatocyte CLint in series [5] was < 20 µL/min/1e6 cells; in series [6] it was < 40 µL/min/1e6 cells. Also, the bioavailability in series [7] is > 25%. In [8], the “time dependent inhibition of CYP3A4: shift in IC50” value is listed as < 2 fold. In [9], the “time dependent inhibition of CYP2C9: shift in IC50” value is < 2 fold. Besides, the “time dependent inhibition of CYP2C19: shift in IC50” value in series [10] is listed as < 2 fold. For the same molecule, the “time dependent inhibition of CYP2D6: shift in IC50” value in series [11] was < 2 fold.
